These are literature values, as cited in the CATMoS acute toxicity set (Mansouri et al. 2021).

Several values for one entry are separate records, joined by “and”; a condition that tells them apart may be missing. Equal entries are not always repeated.

Usually LD50 stands for the dose at which mortality reaches 50%.

The nature of the data set: rat acute oral toxicity. The following applies: in vivo.
For the compound `Nc1nc(=S)ss1`, the LD50 was 3050 mg/kg. On to `CC(C)(C#N)/N=N/C(C)(C)C#N`, for which the LD50 is 100 mg/kg. As to `CC(=O)N1N=C(c2ccc(N)cc2)c2cc3c(cc2CC1C)OCO3` (stereo not given), the 50% lethal dose (LD50) was 200 mg/kg. Take `CCc1ccc(C)[n+](C(C)CCC(C)(C)CC(C)(C)C)c1` (stereo not given): the 50% lethal dose (LD50) was 540 mg/kg. Turning to `COc1ccc(C(=O)CCC(=O)O)c2ccccc12`, the LD50 is 1800 mg/kg. As for `CC(CN)NCCO` (stereo not given), the LD50 was 4920 mg/kg. As to `CC[N+](C)(C)CCO`, the LD50 was 6930 mg/kg. Turning to `C=C(C)CN(CC)c1c([N+](=O)[O-])cc(C(F)(F)F)cc1[N+](=O)[O-]`, the 50% lethal dose (LD50) is 10000 mg/kg. Consider `CC(C)(C)CC(C)(C)c1ccc(OCCOS(=O)(=O)O)cc1`, for which the LD50 was 27000 mg/kg.

For `Clc1cc2c(cc1Cl)Oc1c(cc(Cl)c(Cl)c1Cl)O2`, the LD50 is 0.206 mg/kg.

As for `CC(=O)OC(C)C(Cl)(Cl)Cl` (stereo not given), the LD50 is 900 mg/kg. As to `O=C1NC(CCCl)Oc2ccccc21` (stereo not given), the LD50 is 10000 mg/kg. As for `O=[N+]([O-])c1ccc2ccccc2c1`, the LD50 is 4400 mg/kg. Turning to `CCOC(=O)CC(SP(=O)(OC)OC)C(=O)OCC` (stereo not given), the LD50 was 158 mg/kg. For the compound `ClC(Cl)c1cccc(Oc2ccccc2)c1`, the median lethal dose (LD50) is 6000 mg/kg.

Take `CN(C)CCNC(=O)C(C)(C)Oc1ccc(Cl)cc1`: the 50% lethal dose (LD50) was 130 mg/kg.

`CS(=O)c1ccc(Cl)cc1` (stereo not given): the LD50 is 463 mg/kg. As for `CCOP(=O)(OCC)SCS(=O)(=O)CC`, the LD50 is 0.5 mg/kg. On to `CC(C)Oc1cc(-n2nc(C(C)(C)C)oc2=O)c(Cl)cc1Cl`, for which the 50% lethal dose (LD50) was 3500 mg/kg.

For `Nc1cc(Cl)c(N)cc1Cl`, the LD50 is 1750 mg/kg.

For the compound `COc1ccc(C=Nc2c(C)n(C)n(-c3ccccc3)c2=O)cc1`, the LD50 is 10000 mg/kg. Consider `Cc1cc(-n2c(C)nc3ccccc3c2=O)cc(C)c1O`, for which the LD50 is 230 mg/kg.

On to `CCOP(=O)(OCC)SCC1(C)SCCS1`, for which the LD50 is 28 mg/kg. For `CCCCCCCCCCCCCO`, the LD50 was 17200 mg/kg. For the compound `Oc1ccc(Sc2ccc(O)cc2)cc1`, the LD50 is 3360 mg/kg. Consider `O=C1C(I)=CC(=C(c2cc(I)c(O)c(I)c2)c2ccccc2C(=O)O)C=C1I`, for which the LD50 was 2800 mg/kg. As for `CC1(NC(N)=O)CCCC1`, the LD50 is 1200 mg/kg. Consider `CCCCC[C@H](O)/C=C/[C@H]1[C@H](O)CC(=O)[C@@H]1C/C=C\CCCC(=O)O`, for which the median lethal dose (LD50) was 500 mg/kg. `CNCCc1ccccn1`: the LD50 is 3030 mg/kg and 6110 mg/kg. For the compound `CC(O)c1cccc(N)c1` (stereo not given), the LD50 was 3100 mg/kg.

Regarding `CN=C1C=CC(=C(c2ccc(N(C)C)cc2)c2ccc(N(C)C)cc2)C=C1`, the median lethal dose (LD50) was 413 mg/kg. Consider `CC(Cc1ccccc1)NCCN1CON=C1c1ccccc1` (stereo not given), for which the LD50 was 649 mg/kg.

As to `CC(C)(C)c1ccc(CCC=O)cc1`, the LD50 was 2700 mg/kg.

For `CC1C(=O)OC2CCN3CC=C(COC(=O)C(C)(O)C1(C)O)C23` (stereo not given), the LD50 is 45.5 mg/kg.

For `CC(C)(c1ccccc1)c1cc(CN2CCCCC2)c(O)c(CN2CCCCC2)c1`, the LD50 is 600 mg/kg.

On to `CCC1(CC)C(=O)C=CNC1=O`, for which the LD50 was 780 mg/kg. Consider `CCO[Si](CCl)(OCC)OCC`, for which the LD50 was 2400 mg/kg.

As for `COc1nc(Cl)nc(OC)n1`, the LD50 was 870 mg/kg. In the case of `CCOC(=S)SSC(=S)OCC`, the 50% lethal dose (LD50) is 480 mg/kg. Consider `FC(F)(F)c1nc2cc(Br)c(Cl)cc2[nH]1`, for which the LD50 was 9.04 mg/kg. `c1cc2ccc3cccc4ccc(c1)c2c34`: the LD50 is 2700 mg/kg. As to `ClC1=C(Cl)C2(Cl)C3CCCCC3C1(Cl)C2(Cl)Cl` (stereo not given), the LD50 was 100 mg/kg. For the compound `CC(C=O)=Cc1ccccc1`, the LD50 is 2050 mg/kg. Turning to `O=CNc1ccc(Cl)cc1`, the LD50 was 750 mg/kg.

As for `O=C(O)c1cc(/N=N/c2ccc(S(=O)(=O)Nc3ccccn3)cc2)ccc1O`, the LD50 was 15600 mg/kg. Regarding `CNC(=O)Oc1cc(C(C)C)ccc1Cl`, the LD50 is 21 mg/kg. `O=C(O)Cc1ccc(C2CCCCC2)c(Cl)c1`: the LD50 is 83 mg/kg.

Turning to `CC(C)c1ccnc2ccccc12`, the 50% lethal dose (LD50) is 940 mg/kg.

Take `O=C(O)c1cc(S(=O)(=O)O)ccc1O`: the LD50 was 1850 mg/kg. Regarding `CCOP(=O)(OCC)SCn1nc(C)ccc1=O`, the LD50 was 6.5 mg/kg. As to `C=CCCCCCCCCC(=O)O`, the LD50 is 2500 mg/kg. With `CN(C)N=Nc1nc[nH]c1C(N)=O`, the LD50 is 2150 mg/kg. For `C=CCOCCO`, the LD50 was 3050 mg/kg. For `CC1=CCC2C(C1)C2(C)C` (stereo not given), the 50% lethal dose (LD50) is 4800 mg/kg. With `O=C1C(Cc2ccccc2)C(=O)N(c2ccccc2)N1c1ccccc1`, the LD50 was 297 mg/kg. For the compound `C=CCOC(=O)/C=C\C(=O)OCC=C`, the LD50 is 300 mg/kg. On to `CN1C(=O)CC(=O)N(c2ccccc2)c2cc(Cl)ccc21`, for which the LD50 is 6000 mg/kg.

`Cc1ccc(N)c(C)c1`: the LD50 is 1260 mg/kg. For `CNC(=O)Oc1cc(C)c(S(C)=O)c(C)c1` (stereo not given), the LD50 was 42 mg/kg. As for `CCCc1ccc(O)cc1`, the LD50 was 500 mg/kg.
